Test results taken from ChEMBL document CHEMBL1201862, “PubChem BioAssay data set” (2004).
Activity calls are given as the source filed them.

Experiments:
[1] = Luminescence Cell-Based Dose Retest to Confirm Inhibitors of Cancer Stem Cells. [Related pubchem assays (depositor defined):AID2717, AID2721]; type: functional; settings: Homo sapiens
[2] = HEp-2 cell cytotoxicity, dose response, cytotoxicity control for RSV inhibitor project, HTS (AID 2410); type: functional; settings: human respiratory syncytial virus
H9c2 = assay: cells; type: functional, cell-based; settings: Rattus norvegicus, H9c2, Myocardium;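 also: confirmatory concentration-response retest of ultra-high-throughput screening hits for modulation of myocardial damage; cell death induced by hydrogen peroxide oxidative stress; compound pretreatment for 60 min then peroxide exposure for 2 h; potency is for protecting the cells against peroxide damage rather than for killing them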
INS1 = assay: beta cell apoptosis inhibitors, cytokine rescue, dose response, luminescence, retest (AID 449756); type: functional, cell-based; settings: Rattus norvegicus, INS1;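 also: cell death triggered by IL-1 beta plus TNF-alpha plus IFN-gamma mixture; protective hits raise ATP signal compared with cytokine alone wells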
Large T antigen = Large T antigen (Simian virus 40, UniProt P03070); type: functional, Betapolyomavirus macacae;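 also: Confirmatory-stage PubChem screen for compounds that inhibit SV40 T antigen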
[3] = biological target: T1, Replicative DNA helicase DnaB (Mycobacterium tuberculosis, UniProt P9WMR3); assay: DnaB intein splicing inhibitors, dose response, biochemical, cell-free fluorescence (AID 449749); type: functional
T1 sequence (P9WMR3 whole entry): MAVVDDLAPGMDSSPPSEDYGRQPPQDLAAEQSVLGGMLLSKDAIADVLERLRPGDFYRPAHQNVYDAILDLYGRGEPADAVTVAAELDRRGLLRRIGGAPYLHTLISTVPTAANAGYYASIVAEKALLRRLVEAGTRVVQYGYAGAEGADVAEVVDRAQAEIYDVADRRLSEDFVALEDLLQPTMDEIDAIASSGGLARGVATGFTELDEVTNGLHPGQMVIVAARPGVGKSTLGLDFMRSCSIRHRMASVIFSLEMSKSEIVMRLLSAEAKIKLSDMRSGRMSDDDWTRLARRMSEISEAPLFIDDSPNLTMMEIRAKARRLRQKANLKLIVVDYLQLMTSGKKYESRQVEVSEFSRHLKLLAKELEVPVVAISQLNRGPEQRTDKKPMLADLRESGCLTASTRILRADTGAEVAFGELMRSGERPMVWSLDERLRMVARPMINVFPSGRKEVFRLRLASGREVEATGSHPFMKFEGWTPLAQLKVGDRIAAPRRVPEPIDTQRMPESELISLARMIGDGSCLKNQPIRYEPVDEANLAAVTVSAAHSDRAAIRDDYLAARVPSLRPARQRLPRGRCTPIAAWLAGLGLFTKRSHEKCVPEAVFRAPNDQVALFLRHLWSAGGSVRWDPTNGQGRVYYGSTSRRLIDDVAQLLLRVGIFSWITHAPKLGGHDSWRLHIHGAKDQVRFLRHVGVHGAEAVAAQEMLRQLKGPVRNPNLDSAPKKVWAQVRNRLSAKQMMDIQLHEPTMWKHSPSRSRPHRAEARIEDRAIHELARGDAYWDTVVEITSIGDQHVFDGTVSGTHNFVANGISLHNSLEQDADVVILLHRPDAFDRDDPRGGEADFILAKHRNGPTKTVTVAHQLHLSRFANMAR

Protein RecA = biological target: T2, Protein RecA (Mycobacterium tuberculosis, UniProt P9WHJ3); assay: Fluorescence Cell-Free Homogeneous Dose Retest to Identify Inhibitors of RecA-Intein Splicing Activity. [Related pubchem assays (depositor defined):AID2097, AID2223, AID489010, AID492950]; type: functional
T2 sequence (P9WHJ3 whole entry): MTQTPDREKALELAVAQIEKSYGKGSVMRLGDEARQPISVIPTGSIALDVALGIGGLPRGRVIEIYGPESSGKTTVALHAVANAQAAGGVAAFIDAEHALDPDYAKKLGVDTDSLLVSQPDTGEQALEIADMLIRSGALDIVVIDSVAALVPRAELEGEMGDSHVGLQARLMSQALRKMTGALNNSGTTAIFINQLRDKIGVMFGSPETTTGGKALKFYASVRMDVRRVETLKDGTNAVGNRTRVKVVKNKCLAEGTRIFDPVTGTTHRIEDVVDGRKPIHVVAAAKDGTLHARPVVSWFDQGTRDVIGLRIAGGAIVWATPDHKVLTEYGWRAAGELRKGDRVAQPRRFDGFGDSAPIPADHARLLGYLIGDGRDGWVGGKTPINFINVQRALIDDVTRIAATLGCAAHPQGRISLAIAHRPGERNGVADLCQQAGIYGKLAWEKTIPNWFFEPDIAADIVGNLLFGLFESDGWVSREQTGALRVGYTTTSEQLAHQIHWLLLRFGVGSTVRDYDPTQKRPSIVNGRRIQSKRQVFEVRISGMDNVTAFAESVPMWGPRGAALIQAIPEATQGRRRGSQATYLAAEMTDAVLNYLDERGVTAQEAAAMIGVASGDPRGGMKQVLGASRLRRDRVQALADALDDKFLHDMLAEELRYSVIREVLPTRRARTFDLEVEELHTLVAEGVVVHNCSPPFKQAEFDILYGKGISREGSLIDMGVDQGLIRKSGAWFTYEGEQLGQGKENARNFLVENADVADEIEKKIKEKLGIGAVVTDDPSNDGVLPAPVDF

[4] = cytotoxicity toward NIH3T3 fibroblasts, dose response, counter-screen, cell-based, ATP luminescence, mouse fibroblasts (AID 2010); type: functional;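 also: cells exposed to compound for about 90 hours before reading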
[5] = inhibitors of intracellular T. cruzi replication, confirmation, NIH3T3 host cells, beta-gal luminescence (AID 2044); type: functional, cell-based;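 also: intracellular parasites grown in NIH/3T3 mouse fibroblasts as host cells; luminescent beta-galactosidase reporter signal from transgenic T. cruzi replicating inside host cells; inhibitors lower the luminescence signal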
[6] = growth suppression of beta-catenin-knockout colon cells, dose response, cell-based, HCT116, human colon tumor (AID 1045); type: functional;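 also: HCT116 colon tumor cells with beta catenin knocked out; cells exposed to compound for 60 hours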
[7] = system: Streptococcus sp. 'group A'; assay: growth inhibition of control SK(-) GAS strain, dose response, counter-screen for streptokinase expression inhibitor project, luminescence, kanamycin, BacTiterGlo, confirmation (AID 1900); type: functional, organism-based
Streptococcus = assay: Group A Streptococcus viability loss, dose response, counter-screen for streptokinase expression inhibitor project, luminescence, BacTiterGlo (AID 1915); type: functional, organism-based;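 also: potency for reduction of bacterial viability or growth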
[8] = growth suppression of PTEN-null colon cells, dose response, cell-based, HCT116 PTEN knockout (AID 1047); type: functional;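 also: HCT116 colon tumor cells with PTEN knocked out; cells exposed to compound for 60 hours before readout; potency for loss of cell viability measured by luminescence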
Streptokinase A = biological target: T3, Streptokinase A (Streptococcus pyogenes serotype M1, UniProt P10520); assay: S. pyogenes streptokinase expression inhibitors, potency, dose response, plasminogen activation absorbance, OD405 (AID 1914); type: functional, Streptococcus pyogenes M1 GAS;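 also: secreted streptokinase activity via plasminogen activation per viability signal from cell pellet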
T3 sequence (P10520 whole entry): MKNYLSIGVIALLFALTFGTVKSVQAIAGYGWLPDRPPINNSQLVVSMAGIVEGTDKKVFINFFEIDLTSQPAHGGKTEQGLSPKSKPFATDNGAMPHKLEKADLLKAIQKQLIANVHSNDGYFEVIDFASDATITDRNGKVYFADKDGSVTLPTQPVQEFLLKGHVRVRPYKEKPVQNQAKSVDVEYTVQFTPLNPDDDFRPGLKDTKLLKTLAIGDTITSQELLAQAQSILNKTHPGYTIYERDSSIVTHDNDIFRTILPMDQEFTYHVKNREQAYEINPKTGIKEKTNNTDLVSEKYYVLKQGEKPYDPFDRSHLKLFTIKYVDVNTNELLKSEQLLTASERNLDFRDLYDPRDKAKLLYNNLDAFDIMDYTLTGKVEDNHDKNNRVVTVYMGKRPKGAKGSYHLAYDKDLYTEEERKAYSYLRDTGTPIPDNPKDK

[9] = biological target: T4, Corticotropin-releasing factor receptor 2/Corticotropin-releasing factor-binding protein (Homo sapiens, UniProt P24387+Q13324); assay: activators of CRF receptor 2 with binding protein – uHTS hits, confirmation (AID 602473); type: functional; settings: read-out: EC50_Mean
T4 sequence (Q13324 whole entry): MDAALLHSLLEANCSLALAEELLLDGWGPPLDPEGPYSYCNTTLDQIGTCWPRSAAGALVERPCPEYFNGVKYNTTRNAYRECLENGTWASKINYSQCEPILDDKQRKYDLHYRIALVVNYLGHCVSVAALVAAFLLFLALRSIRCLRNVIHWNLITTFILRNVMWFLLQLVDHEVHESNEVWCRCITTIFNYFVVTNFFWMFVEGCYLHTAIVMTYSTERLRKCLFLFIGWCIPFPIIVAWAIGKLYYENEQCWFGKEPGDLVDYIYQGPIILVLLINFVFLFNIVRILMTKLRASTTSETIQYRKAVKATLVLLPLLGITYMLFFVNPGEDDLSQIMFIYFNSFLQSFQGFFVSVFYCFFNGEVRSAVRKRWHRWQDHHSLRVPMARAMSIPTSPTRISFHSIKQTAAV
T4 sequence (P24387 whole entry): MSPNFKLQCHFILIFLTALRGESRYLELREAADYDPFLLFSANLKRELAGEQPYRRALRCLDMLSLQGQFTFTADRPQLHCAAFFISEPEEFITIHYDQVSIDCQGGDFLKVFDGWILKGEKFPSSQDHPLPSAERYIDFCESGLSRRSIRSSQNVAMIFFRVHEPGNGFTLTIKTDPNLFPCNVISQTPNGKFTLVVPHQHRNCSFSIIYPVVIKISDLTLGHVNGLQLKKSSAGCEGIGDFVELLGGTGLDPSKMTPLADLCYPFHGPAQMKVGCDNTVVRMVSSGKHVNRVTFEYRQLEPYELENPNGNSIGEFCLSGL

[10] = biological target: T4, Corticotropin-releasing factor receptor 2/Corticotropin-releasing factor-binding protein; assay: Dose Response confirmation of uHTS hits for small molecule antagonists of the CRF-binding protein and CRF-R2 receptor complex.; type: functional; settings: read-out: IC50_Mean
[11] = biological target: T5, Rac GTPase-activating protein 1 (Homo sapiens, UniProt Q9H0H5); assay: MgcRacGAP GTPase-activating activity inhibitors, confirmation, biochemical, ADP Hunter fluorescence, primary and confirmatory (AID 624330); type: functional
T5 sequence (Q9H0H5 whole entry): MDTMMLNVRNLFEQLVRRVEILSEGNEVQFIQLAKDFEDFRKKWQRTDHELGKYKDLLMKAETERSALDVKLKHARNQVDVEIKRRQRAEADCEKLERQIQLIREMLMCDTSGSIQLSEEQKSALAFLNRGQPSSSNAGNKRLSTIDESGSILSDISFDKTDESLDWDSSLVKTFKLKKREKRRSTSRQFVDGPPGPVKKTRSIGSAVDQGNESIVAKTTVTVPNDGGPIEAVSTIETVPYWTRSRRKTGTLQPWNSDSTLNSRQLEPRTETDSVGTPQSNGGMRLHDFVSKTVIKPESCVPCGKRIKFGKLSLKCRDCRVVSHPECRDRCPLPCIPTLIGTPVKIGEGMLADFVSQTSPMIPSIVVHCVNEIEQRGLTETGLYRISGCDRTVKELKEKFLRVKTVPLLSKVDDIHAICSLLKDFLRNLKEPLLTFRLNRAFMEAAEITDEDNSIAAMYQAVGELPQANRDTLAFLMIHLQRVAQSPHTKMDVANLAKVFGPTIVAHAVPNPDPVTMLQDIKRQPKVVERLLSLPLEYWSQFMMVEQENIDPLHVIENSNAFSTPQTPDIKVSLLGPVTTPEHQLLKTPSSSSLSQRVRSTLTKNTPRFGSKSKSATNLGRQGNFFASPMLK

Sequence of Large T antigen (P03070 whole entry): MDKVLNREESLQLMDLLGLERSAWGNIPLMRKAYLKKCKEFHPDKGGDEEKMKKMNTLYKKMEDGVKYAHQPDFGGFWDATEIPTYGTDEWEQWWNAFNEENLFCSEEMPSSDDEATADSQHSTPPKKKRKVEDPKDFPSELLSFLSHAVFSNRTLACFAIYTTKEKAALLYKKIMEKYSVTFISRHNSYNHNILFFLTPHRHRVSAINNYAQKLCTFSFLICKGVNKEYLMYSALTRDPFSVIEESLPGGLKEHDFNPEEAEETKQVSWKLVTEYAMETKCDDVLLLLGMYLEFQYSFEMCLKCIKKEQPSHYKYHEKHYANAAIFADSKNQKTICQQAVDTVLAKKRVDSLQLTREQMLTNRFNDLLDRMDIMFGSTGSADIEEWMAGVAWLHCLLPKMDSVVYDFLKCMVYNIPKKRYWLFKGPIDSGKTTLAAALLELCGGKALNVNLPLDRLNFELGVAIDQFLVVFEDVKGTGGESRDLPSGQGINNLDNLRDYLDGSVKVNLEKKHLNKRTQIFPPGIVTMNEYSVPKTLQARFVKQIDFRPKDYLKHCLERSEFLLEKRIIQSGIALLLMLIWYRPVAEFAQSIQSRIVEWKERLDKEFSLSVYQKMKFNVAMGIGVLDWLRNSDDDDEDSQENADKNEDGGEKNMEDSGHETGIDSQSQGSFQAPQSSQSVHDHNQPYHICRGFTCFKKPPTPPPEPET

O=C(CN(c1cccc(C(F)(F)F)c1)S(=O)(=O)c1ccc(Cl)c([N+](=O)[O-])c1)NCc1ccccc1Cl
AC50 [1]: 1.72 µM (active) | CC50 [2]: > 50 µM (active)

CCN1C(=O)/C(=C/c2nc3ccccc3c(=O)n2-c2ccccc2)c2ccccc21
IC50 (H9c2): > 79 µM (inactive)

COc1ccc(-c2c([C@H]3[C@H]4C=CC[C@@H](C)[C@@H]4C(=O)N3Cc3ccccc3)ccc3ccccc23)cc1
AC50 (INS1): 9.01 µM (active)

CCOc1cc(/C=C2/NC(=O)N(CC(=O)OC)C2=O)ccc1O
IC50 (Large T antigen): 12.5 µM (active)

Cc1cc(F)ccc1S(=O)(=O)N(C(=O)c1ccncc1)c1ccc(OC(=O)c2ccncc2)cc1
IC50 (Large T antigen): 50.7 µM (active) | AC50 [3]: 4.53 µM (active) | EC50 (Protein RecA): 14.1 µM (active)

CCOC(=O)Cc1nnc(O)c2ccccc12
IC50 (H9c2): 11.1 µM (active)

O=C(c1cccc(-c2ccc(O)cc2)c1)N1CCOCC1
IC50 (Large T antigen): 10.2 µM (active)

CCOc1cccc(Nc2cc3n(c(=O)n2)CCc2cc(OC)c(OC)cc2-3)c1
IC50 (H9c2): 12.8 µM (active)

O=C(Nc1ccc(Cl)c(Cl)c1)Nc1nnc(CC2=CCCCC2)s1
AC50 (INS1): 3.51 µM (active)

CCOc1ccc2nc(O)c(CN(CCO)C3(c4nnnn4C4CCCCC4)CCCCC3)cc2c1
IC50 (H9c2): 26.4 µM (active)

COc1ccc2nc(O)c(CN(Cc3ccco3)C(c3nnnn3Cc3ccccc3)C(C)C)cc2c1 (stereo not drawn)
EC50 [4]: > 60 µM (not active) | IC50 (H9c2): > 79 µM (inactive) | EC50 [5]: > 60 µM (not active)

CCS(=O)(=O)Nc1ccc(-c2cc(-c3ccccc3)c3cc(C)ccc3n2)cc1
EC50 [6]: 24.1 µM (active) | AC50 [1]: 3.42 µM (active) | EC50 [7]: 7.31 µM (active) | EC50 (Streptococcus): 7.65 µM (active) | EC50 [8]: 27.6 µM (active) | EC50 (Streptokinase A): > 150 µM (not active)

O=C1CCSc2c1ccc1ccccc21
EC50 [9]: > 53 µM (inactive) | IC50 [10]: > 47.1 µM (inactive)

CC(NC(=O)Cn1nc(C(=O)O)c2ccccc2c1=O)c1ccccc1 (stereo not drawn)
IC50 (H9c2): 18.3 µM (active)

O=C(Nc1ccccc1)Nc1ccc(O)c2ccccc12
AC50 [1]: 2.56 µM (active) | AC50 [3]: 9.08 µM (active) | EC50 (Protein RecA): 0.762 µM (active)

C/C(=N\CCCn1ccnc1)c1c(-c2ccccc2)[nH]n(-c2nc3ccccc3s2)c1=O
IC50 (H9c2): > 79 µM (inactive)

COc1cc(/C=N\NC(=O)c2c(C)nc3cc(C)ccn23)ccc1O
IC50 [11]: 33.3 µM (active) | IC50 (Large T antigen): 13.4 µM (active)

Cc1nc(Cl)cc(N/N=C/c2ccc(O)cc2)n1
IC50 (Large T antigen): 8.13 µM (active)

C/C(CC(=O)Nc1ccc(N(C)C)cc1)=N\NC(=O)c1ccc([N+](=O)[O-])cc1Cl
IC50 [11]: 66.7 µM (active) | IC50 (Large T antigen): 9.88 µM (active)

CCOc1cc(/C=N\NC(=O)CC(=O)NCCc2ccccc2)ccc1O
IC50 [11]: 46.5 µM (active) | IC50 (Large T antigen): 7.94 µM (active)

C/C(=N/NC(=O)CSc1nc2ccccc2n1C)c1ccc(O)cc1
IC50 [11]: 138 µM (active) | IC50 (Large T antigen): 30.9 µM (active)
